Test results from US20250144067A1, “PERSONALIZED STARVATION THERAPY FOR CANCER” (Faeth Therapeutics, Inc., priority 2021, published 2025).
Structures can show the parent of a compound that is named as a salt. Where two headings read alike, the source gives them in different places.

Tests used:
[1] = test system: NCI-H292 lung cancer cells; assay: FDA drug screening, complete media vs cholesterol-free media without statin (TABLE 1); assay type: cell-based, human
[2] = test system: NCI-H292 lung cancer cells; assay: FDA drug screening, complete media vs cholesterol-free media with simvastatin (TABLE 2); assay type: cell-based, human
[3] = Complete minus Cholesterol-free, greater than 0 enhanced anti-cancer activity, about 0 neutral, below 0 antagonists
[4] = NCI-H292 cells in cholesterol-free media without statin
[5] = NCI-H292 cells in complete media
[6] = NCI-H292 cells, FDA drug library screen, cholesterol-free media with simvastatin 0.04 μM
[7] = NCI-H292 cells, FDA drug library screen, complete media
[8] = complete media minus cholesterol-free media + simvastatin, >0 enhanced anti-cancer activity, about 0 neutral, <0 antagonist
[9] = Complete minus Cholesterol-free, greater than 0 enhanced anti-cancer activity, about 0 neutral, below 0 antagonist
[10] = NCI-H292 cells, FDA drug library screen, cholesterol-free media without statin
[11] = NCI-H292 cells, cholesterol-free media with simvastatin 0.04 μM, FDA drug library screen (TABLE 2)
[12] = NCI-H292 cells, complete media, FDA drug library screen (TABLE 2)
[13] = complete media minus cholesterol-free media + simvastatin (0.04 μM), >0 enhanced anti-cancer activity, about 0 neutral, <0 antagonist
[14] = Complete minus Cholesterol-free, >0 enhanced anti-cancer activity, about 0 neutral, <0 antagonist
[15] = NCI-H292 cells, cholesterol-free media without statin
[16] = NCI-H292 cells, cholesterol-free media without statin, FDA drug library screen
[17] = NCI-H292 cells, complete media, FDA drug library screen
[18] = NCI-H292 cells, drug in cholesterol-free media with simvastatin 0.04 μM
[19] = NCI-H292 cells, drug in complete media
[20] = complete media vs cholesterol-free media + simvastatin (0.04 μM), >0 enhanced anti-cancer activity, about 0 neutral, <0 antagonist
[21] = complete vs cholesterol-free media, greater than 0 enhanced anti-cancer activity, about 0 neutral, below 0 antagonists
[22] = NCI-H292 cells, cholesterol-free media with simvastatin 0.04 μM, cell growth value in FDA drug screen
[23] = NCI-H292 cells, complete media, cell growth value in FDA drug screen
[24] = Complete minus Cholesterol-free, […]

## Brompheniramine (maleate)
[1]; [3]
  Difference: −0.54
[1]; [4]
  Cholesterol-free: 1.443
[1]; [5]
  Complete: 0.9065
[2]; [6]
  Cholesterol-free media + simvastatin (0.04 μM): 0.8932
[2]; [7]
  Complete Media: 1.189
[2]; [8]
  Difference: 0.30

## O=C(O)CCc1nc(-c2ccccc2)c(-c2ccccc2)o1 [Oxaprozin]
[1]; [9]
  Difference: −0.11
[1]; [10]
  Cholesterol-free: 1.125
[1]; [7]
  Complete: 1.011
[2]; [11]
  Cholesterol-free media + simvastatin (0.04 μM): 0.8941
[2]; [12]
  Complete Media: 0.904
[2]; [13]
  Difference: 0.01

## Nc1nc(O)c2ncn(COC(CO)CO)c2n1 [Ganciclovir (sodium)]
[1]; [14]
  Difference: −0.19
[1]; [15]
  Cholesterol-free: 0.9099
[1]; NCI-H292 cells, complete media
  Complete: 0.7218
[2]; [11]
  Cholesterol-free media + simvastatin (0.04 μM): 1.423
[2]; [12]
  Complete Media: 1.395
[2]; [13]
  Difference: −0.03

## CCCCC1OC(=O)c2ccccc21 (stereo not shown) [Butylphthalide]
[1]; [16]
  Cholesterol-free: 0.6966
[1]; [17]
  Complete: 1.343
[1]; complete vs cholesterol-free media, >0 enhanced anti-cancer activity, about 0 neutral, <0 antagonist
  Difference: 0.65
[2]; [18]
  Cholesterol-free media + simvastatin (0.04 μM): 1.292
[2]; [19]
  Complete Media: 1.12
[2]; [20]
  Difference: −0.17

## Spiramycin
[1]; [3]
  Difference: −1.20
[1]; [4]
  Cholesterol-free: 2.038
[1]; [5]
  Complete: 0.8421
[2]; [18]
  Cholesterol-free media + simvastatin (0.04 μM): 1.277
[2]; [20]
  Difference: −0.16

## O=c1ccc2ccc(OCCCCN3CCN(c4cccc5sccc45)CC3)cc2[nH]1 [Brexpiprazole]
[1]; [15]
  Cholesterol-free: 0.9917
[1]; NCI-H292 cells, complete media
  Complete: 0.6405
[1]; [21]
  Difference: −0.35
[2]; [22]
  Cholesterol-free media + simvastatin (0.04 μM): 0.8945
[2]; [23]
  Complete Media: 1.024
[2]; [8]
  Difference: 0.13

## COC(=O)C[C@](O)(CCC(C)(C)O)C(=O)O[C@@H]1C(OC)=C[C@]23CCCN2CCc2cc4c(cc2[C@H]13)OCO4 [Harringtonine]
[1]; [24]
  Difference: −0.01
[1]; [16]
  Cholesterol-free: 0.0181
[1]; [17]
  Complete: 0.006818
[2]; [11]
  Cholesterol-free media + simvastatin (0.04 μM): −0.01111
[2]; [12]
  Complete Media: −0.002434
[2]; complete media minus cholesterol-free media + simvastatin (0.04 μM), […]
  Difference: 0.01

## Gadoxetate (Disodium)
[1]; [24]
  Difference: −0.26
[1]; [15]
  Cholesterol-free: 1.164
[1]; NCI-H292 cells, complete media
  Complete: 0.9023
[2]; [6]
  Cholesterol-free media + simvastatin (0.04 μM): 1.553
[2]; [7]
  Complete Media: 1.778
[2]; complete media minus cholesterol-free media + simvastatin, […]
  Difference: 0.22

## OC[C@H]1O[C@@H](n2cnc3c2NC=NC[C@H]3O)C[C@@H]1O [Pentostatin]
[1]
  Cholesterol-free: 1.242
  Complete: 0.8025
  Difference: −0.44
[2]
  Cholesterol-free media + simvastatin (0.04 μM): 1.49
  Complete Media: 1.245
  Difference: −0.25

## NS(=O)(=O)c1cc(C2(O)NC(=O)c3ccccc32)ccc1Cl (stereo not shown) [Chlorthalidone]
[1]; [14]
  Difference: −0.22
[1]; [15]
  Cholesterol-free: 1.209
[1]; NCI-H292 cells, complete media
  Complete: 0.9927
[2]; [18]
  Cholesterol-free media + simvastatin (0.04 μM): 1.215
[2]; [19]
  Complete Media: 0.9907
[2]; [20]
  Difference: −0.22

## C[C@@H]1CCO[C@H]2Cn3cc(C(=O)NCc4ccc(F)cc4F)c(=O)c(O)c3C(=O)N12 [Dolutegravir]
[1]; [14]
  Difference: −0.20
[1]; [15]
  Cholesterol-free: 0.9033
[1]; NCI-H292 cells, complete media
  Complete: 0.7062
[2]; [11]
  Cholesterol-free media + simvastatin (0.04 μM): 0.5964
[2]; [12]
  Complete Media: 0.5738
[2]; [13]
  Difference: −0.02

## COC(=O)[C@H]1[C@H]2C[C@H]3c4[nH]c5ccccc5c4CCN3C[C@H]2CC[C@@H]1O [Rauwolscine (hydrochloride)]
[1]; [15]
  Cholesterol-free: 1.377
[1]; NCI-H292 cells, complete media
  Complete: 0.9629
[1]; [21]
  Difference: −0.41
[2]; [22]
  Cholesterol-free media + simvastatin (0.04 μM): 0.7455
[2]; [23]
  Complete Media: 0.837
[2]; [8]
  Difference: 0.09

## CC(C)C[C@H](NC(=O)[C@@H](O)[C@H](N)Cc1ccccc1)C(=O)O [Bestatin (hydrochloride)]
[1]; [15]
  Cholesterol-free: 1.217
[1]; NCI-H292 cells, complete media
  Complete: 0.9083
[1]; [21]
  Difference: −0.31
[2]; [6]
  Cholesterol-free media + simvastatin (0.04 μM): 1.299
[2]; [20]
  Difference: −0.15

## CN1CCN(C2=Nc3ccccc3Oc3ccc(Cl)cc32)CC1 [Loxapine]
[1]; [14]
  Difference: −0.26
[1]; [15]
  Cholesterol-free: 1.313
[1]; NCI-H292 cells, complete media
  Complete: 1.056
[2]; [22]
  Cholesterol-free media + simvastatin (0.04 μM): 0.8194
[2]; [23]
  Complete Media: 0.9125
[2]; [8]
  Difference: 0.09

## Cc1nc(NC(=O)N2CCC[C@H]2C(N)=O)sc1-c1ccnc(C(C)(C)C(F)(F)F)c1 [Alpelisib]
[1]; [14]
  Difference: 0.04
[1]; [16]
  Cholesterol-free: 0.497
[1]; [17]
  Complete: 0.5335
[2]; [11]
  Cholesterol-free media + simvastatin (0.04 μM): 0.5514
[2]; [12]
  Complete Media: 0.5502
[2]; [13]
  Difference: 0.00

## CCOc1cc(CC(=O)N[C@@H](CC(C)C)c2ccccc2N2CCCCC2)ccc1C(=O)O [Repaglinide]
[1]; [9]
  Difference: −0.08
[1]; [10]
  Cholesterol-free: 1.088
[1]; [7]
  Complete: 1.008
[2]; [18]
  Cholesterol-free media + simvastatin (0.04 μM): 0.996
[2]; [19]
  Complete Media: 0.8125
[2]; [20]
  Difference: −0.18
